Experimental data reported in ChEMBL document CHEMBL4385608, “5-Aryl-1,3,4-oxadiazol-2-ylthioalkanoic Acids: A Highly Potent New Class of Inhibitors of Rho/Myocardin-Related Transcription Factor (MRTF)/Serum Response Factor (SRF)-Mediated Gene Transcription as Potential Antifibrotic Agents for Scleroderma” (J Med Chem, 2019).
In brackets after ≈: the same amount, converted by molar mass. Activity calls are given as the source filed them. No cut-off for these calls is given here.

What was measured:
[1] = Half-life in CD-1 mouse liver microsomes at 1 uM in presence of NADPH by LC-MS/MS analysis; assay type: ADME, Microsome
PC-3 [2] = assay: Cytotoxicity against human PC3 cells assessed as reduction in cell viability up to 100 uM by WST-1 assay relative to control; assay type: cell-based
[3] = Inhibition of Rho/MRTF/SRF pathway (unknown origin) expressed in human PC3 cells assessed as reduction in Galpha12 Q231L-stimulated MRTF-selective SRE.L promoter-driven luciferase activity after overnight incubation by luminescence assay; assay type: cell-based
PC-3 [4] = assay: Cytotoxicity against human PC3 cells assessed as reduction in cell viability by CellTiter-Fluor assay; assay type: cell-based
Homo sapiens [5] = species on record: Homo sapiens; assay: Inhibition of Rho/MRTF/SRF pathway in human primary dermal fibroblasts assessed as reduction in LPA-stimulated CTGF mRNA expression by measuring CTGF mRNA level at 10^-6 M preincubated for 72 hrs followed by LPA stimulation and measured after 1 hr by qPCR analysis relative to control; parameters: scale not given: the % may be the effect or the level left
[6] = Inhibition of Rho/MRTF/SRF pathway (unknown origin) expressed in HEK293T cells assessed as reduction in Galpha12-stimulated MRTF-selective SRE.L promoter-driven luciferase activity after overnight incubation by luminescence assay; assay type: cell-based, Homo sapiens
HEK-293T = assay: Cytotoxicity against HEK293T cells assessed as reduction in cell viability up to 100 uM by WST-1 assay relative to control; assay type: cell-based; settings: human
Mus musculus [7] = assay: Antifibrotic activity in bleomycin-induced mouse model of dermal fibrosis assessed as decrease in hydroxyproline content administered daily via oral gavage for 14 days measured post-last dose; assay type: functional, organism-based
[8] = Oral bioavailability in CD-1 mouse at 30 mg/kg by LC-MS/MS analysis; assay type: ADME, organism-based; settings: in vivo
Mus musculus [9] = assay: Antifibrotic activity in bleomycin-induced mouse model of dermal fibrosis assessed as decrease in dermal thickness administered daily via oral gavage for 14 days measured post-last dose by Masson's trichrome-staining based microscopic method; assay type: functional, organism-based
[10] = AUC in CD-1 mouse at 15 mg/kg, iv by LC-MS/MS analysis; assay type: ADME, organism-based; settings: in vivo
[11] = Half-life in CD-1 mouse at 15 mg/kg, iv by LC-MS/MS analysis; assay type: ADME, organism-based; settings: in vivo
[12] = Half-life in CD-1 mouse at 30 mg/kg, po by LC-MS/MS analysis; assay type: ADME, organism-based; settings: in vivo
[13] = Thermodynamic solubility of the compound; assay type: physicochemical; settings: read-out: Therm_solubility
[14] = AUC in CD-1 mouse at 30 mg/kg, po by LC-MS/MS analysis; assay type: ADME, organism-based; settings: in vivo
Homo sapiens [15] = species on record: Homo sapiens; assay: Inhibition of Rho/MRTF/SRF pathway in human primary dermal fibroblasts assessed as reduction in LPA-stimulated CTGF mRNA expression preincubated for 48 hrs followed by LPA stimulation and measured after 1 hr by qPCR analysis
Homo sapiens [16] = species on record: Homo sapiens; assay: Inhibition of Rho/MRTF/SRF pathway in human primary dermal fibroblasts assessed as reduction in LPA-stimulated CTGF mRNA expression preincubated for 72 hrs followed by LPA stimulation and measured after 1 hr by qPCR analysis
[17] = Clearance in CD-1 mouse at 15 mg/kg, iv by LC-MS/MS analysis; assay type: ADME, organism-based; settings: in vivo
[18] = Cmax in CD-1 mouse at 15 mg/kg, iv by LC-MS/MS analysis; assay type: ADME, organism-based; parameters: dose 15 mg/kg, route intravenous; settings: in vivo
[19] = Cmax in CD-1 mouse at 30 mg/kg, po by LC-MS/MS analysis; assay type: ADME, organism-based; parameters: dose 30 mg/kg, route oral; settings: in vivo

SMILES	IC50 [3] [nM]	IC50 [6] [nM]	Activity (PC-3 [2]) [%]	Activity (HEK-293T) [%]	further results
O=C(O)CSc1nnc(-c2ccc(Cl)cc2Cl)o1	–	–	< 5	–	–
Cc1ccccc1-c1nnc(SCCC(=O)O)o1	6300	–	< 5	–	–
COC(=O)c1ccc2c(c1)NC(=O)/C2=C(\Nc1ccc(N(C)C(=O)CN2CCN(C)CC2)cc1)c1ccccc1 [NINTEDANIB]	1300	–	–	–	IC50 (PC-3 [4]): < 30000 nM; Activity (Homo sapiens [5]): 45%
O=C(O)CSCc1nnc(-c2ccc(Cl)cc2Cl)o1	–	11500	–	–	–
O=C(O)CCCc1nnc(-c2ccc(Cl)cc2Cl)o1	–	> 100000	–	–	–
O=C(O)CCCSc1nnc(-c2ccccc2C(F)(F)F)o1	–	10000	–	< 5	–
COc1ccc(-c2nnc(SCCC(=O)O)n2C)cc1	> 100000	–	–	–	–
O=C(O)CCSc1nnc(-c2ccc(Cl)cc2)o1	340	–	< 5	–	–
O=C(O)CCCSc1nnc(-c2cc(C3CC3)ccc2Cl)o1	–	20	–	< 5	–
O=C(O)CCSc1nc(-c2ccccc2)cc(=O)[nH]1	> 100000	–	–	–	–
O=C(O)CCCSc1nnc(-c2ccc(-c3ccccc3)cc2Cl)o1	–	25	–	< 5	–
Cc1ccc(-c2nnc(SCCC(=O)O)o2)cc1	34	–	< 5	–	–

Continued, in another order:

IC50 [3] [nM]	IC50 [6] [nM]	SMILES	Activity (PC-3 [2]) [%]	Activity (HEK-293T) [%]	further results
0.1	–	Cc1ccc(-c2nnc(SCCCC(=O)O)o2)c(Cl)c1	< 5	–	t1/2 [1]: 0.467 h
–	0.0007	CC(C)c1ccc(-c2nnc(SCCCC(=O)O)o2)c(Cl)c1	–	< 5	–
–	< 0.0001	CCCc1ccc(-c2nnc(SCCCC(=O)O)o2)c(Cl)c1	–	< 5	–
–	0.32	Cc1cc(-c2nnc(SCCC(=O)O)o2)c(Cl)cc1Cl	–	< 5	–
2.6	–	CCOC(=O)CCSc1nnc(-c2ccc(Cl)cc2Cl)o1	< 5	–	–
–	0.06	O=C(O)CCCSc1nnc(-c2ccc(C(F)(F)F)cc2Cl)o1	–	< 5	t1/2 [1]: > 1 h
4	2	O=C(O)CCSc1nnc(-c2ccc(Cl)cc2Cl)o1	< 5	< 5	Activity (Mus musculus [7]): Dose-dependent effect; bioavailability [8]: 67%; Activity (Mus musculus [9]): Dose-dependent effect; AUC [10]: 47400 ng·h/mL; t1/2 [11]: 2 h; t1/2 [1]: > 1 h; half-life [12]: 2 h; solubility thermodynamic [13]: 682 µM (≈ 218 µg/mL); AUC [14]: 63200 ng·h/mL; inhibition (Homo sapiens [15]): inactive; inhibition (Homo sapiens [16]): Dose-dependent effect; clearance [17]: 5.3 mL/min/kg; Cmax [18]: 88.5 µg/mL; Cmax [19]: 34 µg/mL
1500	–	O=C(O)CCSc1nnc(-c2cccc(Cl)c2)o1	< 5	–	–
–	0.02	Cc1ccc(-c2nnc(SCCC(=O)O)o2)c(Cl)c1C	–	< 5	–
2.6	–	COc1ccc(-c2nnc(SCCC(=O)O)o2)c(Cl)c1	< 5	–	–
1.5	–	Cc1ccc(-c2nnc(SCCC(=O)O)o2)c(Cl)c1	< 5	–	–
3600	–	COc1cccc(-c2nnc(SCCC(=O)O)o2)c1	< 5	–	–
–	0.23	Cc1cc(Cl)c(-c2nnc(SCCC(=O)O)o2)cc1C	–	< 5	–
